Results as given in PMC2922868 (ACS medicinal chemistry letters, 2010).
Entries after “also recorded” stand apart in the source; their conditions may differ. Read-outs that look alike come from different tables or passages of the source.

Legend:
Hsp90-IP6K2 interaction [1] = conditions: ref [17], cited from earlier work
Hsp90-IP6K2 pathway = conditions: ref [17]; cited from earlier work
Hsp90-FKBP52 interaction = conditions: not tested in this paper; reference not given; cited from earlier work
[2] = system: N-terminal domain of Hsc82 (yeast variant of Hsp90); experiment: pull-down with San A-amide-Biotin, Hsc82 N-terminal domain; type: binding; conditions: San A-amide-Biotin as probe, His-fusion, Figure 5 lane 2
[3] = system: C-terminal domain of Hsc82 (yeast variant of Hsp90); experiment: pull-down with San A-amide-Biotin, Hsc82 C-terminal domain; type: binding; conditions: San A-amide-Biotin as probe, His-fusion, Figure 5 lane 4
[4] = system: N-middle domain of Hsc82 (yeast variant of Hsp90); experiment: pull-down with San A-amide-Biotin, Hsc82 N-middle construct; type: binding; conditions: San A-amide-Biotin as probe, His-fusion, Figure 5 lane 5
Hsp90 = Hsp90 ATPase activity / ATP hydrolysis; type: biochemical; conditions: Supplementary data, Figure S7
[5] = system: middle domain of Hsc82 (yeast variant of Hsp90); type: binding; conditions: pull-down, San A-amide-Biotin as probe; His-fusion; Figure 5 lane 3
[6] = ref [6], [8]; cited from earlier work
[7] = system: IP6K2 over expressed (K2-O/E) HEK 293 cells; experiment: cell survival, IP6K2 over expressed vs wild-type HEK 293 cells; type: cell-based; conditions: 48 hours, CCK-8
[8] = system: full length Hsc82 (yeast variant of Hsp90); experiment: pull-down with San A-amide-Biotin, Hsc82 full length; type: binding; conditions: San A-amide-Biotin as probe, His-fusion, Figure 5 lane 6
Hsp90-IP6K2 interaction [9] = experiment: in vitro pull down binding assay, Hsp90-IP6K2

In the case of `C=CCNC1=C2C[C@@H](C)C[C@H](OC)[C@H](O)[C@@H](C)/C=C(\C)[C@H](OC(N)=O)[C@@H](OC)/C=C\C=C(/C)C(=O)NC(=CC1=O)C2=O` [17-AAG, 17-allylamino, 17-demethoxygeldanamycin], the “IP6K2 binding inhibition at 10 μM (in words)” value (Hsp90-IP6K2 interaction [1]; 10 μM) is listed as “not inhibited”, the “effect on IP6K2 binding to Hsp90 (in words)” value (shortened to “effect on IP6K2 binding”) (Hsp90-IP6K2 interaction [1]) is listed as “did not affect the binding of IP6K2” and the “effect on IP6K2 binding” value (Hsp90-IP6K2 interaction [1]; listed as 17AAG) is listed as “FKBP and IP6K2 binding to Hsp90 are not affected”. For the same compound, the “effect on Hsp90-IP6K2 pathway (in words)” value (Hsp90-IP6K2 pathway) was “did not affect this pathway”.

For `CO[C@@H]1[C@@H](OC(N)=O)[C@@H](O)[C@H](Oc2ccc3c(O)c(NC(=O)c4ccc(O)c(CC=C(C)C)c4)c(=O)oc3c2C)OC1(C)C` [novobiocin], the EC50 (Hsp90-IP6K2 interaction [1]; read-out: EC50, inhibition of IP6K2 binding to Hsp90) is given as ~100 µM, the “effect on IP6K2 binding” value (Hsp90-IP6K2 interaction [1]) is given as “only disrupts Hsp90-IP6K2” and the “effect on Hsp90-FKBP binding (in words)” value (Hsp90-FKBP52 interaction) is given as “not FKBP binding”.

With Sansalvamide A-amide [San A-amide] the “binding to N-terminal domain” value [2] was “only a marginally detectable interaction”, the “binding to C-terminal domain” value [3] was “no affinity” and the “binding to N-middle construct” value [4] was “optimal affinity; also recorded: specifically binds to the N-middle domain of Hsp90”. The “effect on ATP hydrolysis by Hsp90” value (Hsp90) was “no affect on ATP hydrolysis”, the “binding to middle domain” value [5] was “partial affinity” and the “apoptosis (in words)” value [6] was “shown to cause apoptosis”. The “fold change in survival difference, with drug vs no drug (3% vs 27% change)” value ([7]; 25 μM San A-amide, K2-O/E vs wild type HEK 293) was ~ 9 fold, the “change in cell survival, K2-O/E compared to wild type (control)” value ([7]; 25 μM San A-amide, change without drug 3%) was 27% and the “cell survival in K2-O/E compared to wild type (in words)” value ([7]; 25 μM) was “cell survival is substantially decreased in cells that over-express IP6K2 compared to wild type cells”. For the same compound, the “induction of cell death through the Hsp90-IP6K2 pathway (in words)” value ([7]; 25 μM, HEK 293) was “induces cell death, at least in part, through the Hsp90-IP6K2 pathway”, the “binding to full length Hsc82” value [8] was “bound to full length Hsp90” and the “effectiveness relative to novobiocin, IP6K2 binding (in words)” value (Hsp90-IP6K2 interaction [9]; EC50 ~1 μM vs ~100 μM for novobiocin (ref [17])) was “significantly more effective binding inhibitor”. For the same compound, the “inhibition of IP6K2 binding to Hsp90 (in words)” value (Hsp90-IP6K2 interaction [9]; native Hsp90 from HeLa cells, His-IP6K2, 0-10 μM) was “able to block both Hsp90-IP6K2 and Hsp90-FKBP interactions; also recorded: blocks the binding of Hsp90 to a client protein; also recorded: inhibits the binding of the C-terminal interacting protein, IP6K2, to Hsp90” and the “fold potency over Novobiocin at inhibiting C-terminal client proteins” value (Hsp90-IP6K2 interaction [9]; versus Novobiocin) was “over 100 fold”.
